We go through 3 compounds from patent US20260325485A1, “COMPOSITIONS AND METHODS FOR TREATING PANCREATITIS” (The United States Government as represented by the …, priority 2022, published 2026).

One data set relates to muscles. The settings on record: prodrug activated in the liver; cited from earlier work.
Data set [1] has as its system cerulein pancreatitis (CER-AP). In words: Drug treatment of cerulein pancreatitis (CER-AP) in WT mice. It counts as in vivo, mouse. The settings on record: WT mice treated with simvastatin or BemA. The procedure:
(§1) FIGS. 10A-10N show deranged cholesterol metabolism causes acinar cell damage, while its normalization ameliorates experimental pancreatitis. (A-D) Cholesterol content and trypsin activity were measured (per mg protein) in WT mouse acinar cells incubated for 1 hour without and with methyl-β-cyclodextrin (MCD; 10 mM) or cholesterol-loaded MCD (MCD-Chol; 200 μg/mL), in the presence or absence of 100 nM CCK. Values are expressed relative to those in cells without MCD/MCD-Chol. (E-J) WT mice received daily i.p. injections of the LXR agonist T0901317 (T09), simvastatin (Sim; 20 mg/kg each), or vehicle. On day 4, mice were subjected to CER-AP and pancreata collected for analyses (see also FIG. 20). Cholesterol content (E), trypsin activity (F), and pancreas histopathology (H&E staining; G) were measured. (H, I, L, and N) IB analysis of markers/mediators of autophagy (LC3, p62), ER stress (CHOP, GRP-78), and mitophagy (Parkin). Ub, ubiquitylated proteins. (J) Mitochondrial fragmentation was assessed by immunostaining for Tom20, as detailed in FIG. 7G. (K and L) Mouse acinar cells were treated for 16 hours with LDL (30 μg/mL) or the combination of LDL and 10 μM U18666A. (M and N) Mice received injections of U18666A as detailed in FIG. 9B. Pancreas histopathology (H&E staining; M) and levels of autophagy markers/mediators (N) were measured. Each symbol in A-F and I represents an individual mouse or cell preparation. Values are mean±SEM from 3 to 7 mice or cell preparations per condition. ^§ P<0.05, ^§§ P<0.01 vs. control cells (without MCD/MCD-Chol). ***P<0.001 vs. saline-treated mice. ^#P<0.05, ^##P<0.01, ^###P<0.001 vs. CER-AP alone (no inhibitors). Significance was determined by 2-tailed Student's t test (A-D) or 1-way ANOVA followed by Tukey's multiple comparison test (E, F, and I). Scale bars: 10 μm.
FIGS. 20A-20C show simvastatin improves cerulein pancreatitis. Mice received daily i.p. injections of simvastatin (Sim; 20 mg/kg) or vehicle (see FIG. 10), and on day 4 were subjected to cerulein pancreatitis (CER-AP). (A) Pancreas histopathology (H&E staining; scale: 10 μm). (B) IB analysis of markers/mediators of autophagy (LC3, p62), ER stress (CHOP), and the MLN64/STARD3 protein mediating cholesterol transfer from LE/Ly to mitochondria. Each IB lane represents an individual mouse; ERK1/2 is the loading control. […] Ub, ubiquitylated proteins. (C) Pancreatitis responses. Values are mean±SEM from 7-13 mice for each condition. ***p<0.001 vs saline control. ^###p<0.001 vs CER-AP alone (no simvastatin). Significance was determined by 1-way ANOVA followed by Tukey's multiple comparisons test.
(§2) FIGS. 25A-25C show reducing cholesterol overload greatly ameliorates experimental pancreatitis. CER-AP responses were measured in (A) AclyAac or (C) WT mice treated with simvastatin or bempedoic acid (BemA). (B) Acinar cells were transfected with ACLA (or mock) siRNA and subjected to ex-vivo CCK-AP. Each symbol represents an individual mouse or cell preparation. Values are mean±SE. **p<0.01, ***p<0.001 vs saline treated control mice (or mock transfection); #p<0.05, ##p<0.01, ###p<0.001 vs CER/CCK-AP in control mice (i.e. without inhibitors) or cells.
Cerulein-induced (CER-AP) and L-arginine induced (Arg-AP) acute pancreatitis models were performed in 12-week-old C57BL/6 mice that received 7 hourly i.p. injections of 50 μg/kg cerulein or 3 hourly i.p. injections of 3.3 g/kg Arg; controls received physiologic saline injections. Mice were euthanized for analyses 7 hours after the first cerulein or 24 hours after the first Arg injection. Choline deficient, ethionine-supplemented (CDE) pancreatitis was induced in young (~5-weeks old) female mice fed either CDE or control diet. Mice were euthanized 72 hours after the diet initiation. These models have been described in detail (1-7).
12-week-old WT mice were subjected for 4 consecutive days to daily i.p. injections of 20 mg/kg simvastatin (8,9) or 20 mg/kg T0901317 (10); or 10 mg/kg U18666A for 15 days (11). […]

For the next data set, the system named is CER/CCK-AP. In words: Effect of simvastatin and BemA in CER/CCK-AP (mouse and ex-vivo model). The procedure:
as §2
(§3) FIGS. 26A-26D preventing cholesterol overload ameliorates ex-vivo pancreatitis. Mouse pancreatic acinar cells were incubated (A, B) with simvastatin (4 μM, 3 h) or (C, D) cholesterol chelator, methyl-β-cyclodextrin (MCD; 10 mM, 1 h) and then subjected to CCK-AP for 1 (D) or 3 h (A, B). Cholesterol content (A, C) necrosis (B), and trypsin activity (D) were measured. Each symbol represents an individual cell preparation. Values are mean±SEM*p<0/05, **p<0.01 vs control; #p<0.05 ##p<0.01; vs CCK, no inhibitor.
Cholesterol metabolism is disrupted in pancreatitis as a result of lysosomal/autophagy dysfunction. Preventing acinar cell cholesterol overload with simvastatin alleviates AP in one experimental model (CER-AP). As discussed above, lysosomal/autophagy dysfunction is associated with both experimental and human pancreatitis.^6, 7, 9, 13, 17 However, until a recent publication^13 there was very little known on cholesterol metabolism in healthy pancreas, its changes in experimental and human pancreatitis, and role in disease severity. Further, effects of statins and other cholesterol-lowering drugs in pancreas, and the underlying mechanisms, have not been explored. […] This, in turn, stimulates a compensatory increase in cholesterol synthesis, further exacerbating cholesterol overload. It was further shown^13 that inhibition of cholesterol synthesis with simvastatin reduced acinar cell cholesterol overload and the severity of pancreatitis induced with supramaximal cerulein (CER), an ortholog of the hormone cholecystokinin-8 (CCK). The findings^13 reveal a previously unrecognized pathogenic role of cholesterol dysregulation in pancreatitis and indicate normalizing cholesterol metabolism as a novel therapeutic approach for disease treatment.
In summary, the published^13 and current data (FIGS. 23-26) reveal that disruption of acinar cell cholesterol metabolism is a common feature in models of experimental pancreatitis and also prominent in human disease. The key manifestation of cholesterol dyshomeostasis in pancreatitis is acinar cell cholesterol overload. […]

In the next data set the test system is pancreas. The conditions noted are these: pharmacologic autophagy enhancer; cited from earlier work.
Data set [2] deals with trypsin. In words: Trypsin activity in Gnptab−/− acinar cells. It counts as cell-based, mouse. The settings on record: Gnptab−/− acinar cells, cholesterol chelator MCD. On the procedure:
FIGS. 6A-6R show mechanisms mediating increased trypsin activity in Gnptab−/− pancreas. Trypsin activity and its regulation were analyzed in pancreatic (A, C, and D) tissue, (B and P-R) acinar cells, (E-H and O) lobules, and (I-N) subcellular fractions. In B, acinar cells were incubated for 3 hours without and with 20 nM BafAl or 50 μM CatB inhibitor CA-074Me; in P-R, with the cholesterol chelator methyl-β-cyclodextrin (MCD) at the indicated concentrations. In E-H, pancreatic lobules were double stained for TAP and LC3 or LAMP2; in O, for TAP and filipin. Quantitative colocalization analysis was done as detailed in FIG. 2. Each symbol in A, B, J-N, Q, and R represents an individual mouse or cell preparation (n=3-8 per condition). Each symbol in D, G, and H corresponds to 20 to 30 cells in a different field (n=9-20 fields from 3 WT and 3 KO mice or lobule preparations). Values are mean±SEM. **P<0.01, ***P<0.001 vs. WT tissue/lobules (A, G, and H) or corresponding WT subcellular fraction (K and M). ##P<0.01 vs. no inhibitors (B) or MCD (Q and R). ††P<0.01, †††P<0.001 vs. the other two fractions (L and N). Significance was determined by 2-tailed Student's t test (A, G, and H) or 1-way ANOVA followed by Tukey's multiple comparison test (B, K-N, Q, and R). Scale bars: 10 μm.
(§4) Activities of cathepsin (Cat) B and L, caspase-3, trypsin, and lysosomal acid lipase (LAL) were measured in pancreatic tissue or cell homogenates and subcellular fractions with fluorogenic assays using substrates specific for CatB (Z-Arg-Arg-AMC), CatL (Z-Phe-Arg-AMC), caspase-3-like ([…]), trypsin (Boc-Gln-Ala-Arg-AMC), as previously described (1-4, 6, 7); and for LAL (4-methylumbelliferyl oleate), as in (17). In measurements of CatL activity, the assay buffer also contained 50 μM CA-074me, a CatB inhibitor. LAL activity was measured in the absence and presence of the LAL inhibitor lalistat (100 μM) as the difference between these values (17).

The test system of data set [3] is trypsin. In words: Trypsin activity in WT mouse acinar cells without and with CCK. It counts as cell-based. The settings on record: MCD 10 mM, 1 hour, 100 nM CCK. On the procedure: as §1, with “(K and L) Mouse acinar cells were treated for 16 hours with LDL (30 μg/mL) or the combination of LDL and 10 μM U18666A. (M and N) Mice received injections of U18666A as detailed in FIG. 9B.” left out, “Each symbol in A-F and I represents an individual mouse or cell preparation. Values are mean±SEM from 3 to 7 mice or cell preparations per condition. ^§ P<0.05, ^§§ P<0.01 vs. control cells (without MCD/MCD-Chol). ***P<0.001 vs. saline-treated mice. ^#P<0.05, ^##P<0.01, ^###P<0.001 vs. CER-AP alone (no inhibitors).” left out, “Scale bars: 10 μm.” left out

Data set [4] concerns mouse acinar cells. The settings on record: cited from earlier work.
Data set [5] deals with mouse acinar cells. In words: Total cholesterol content of mouse acinar cells (ex vivo pancreatitis models or cholesterol chelator). The settings on record: Gnptab−/− acinar cells. The class given is cell-based. The procedure:
FIGS. 8A-8M show derangement of cholesterol metabolism in experimental pancreatitis. Characteristics of cholesterol metabolism were measured, as detailed in FIGS. 4A-4R, in pancreas of WT mice subjected to pancreatitis induced with cerulein (CER-AP), L-arginine (Arg-AP), or CDE diet (CDE-AP) (A, B, and E-G); ex vivo pancreatitis induced in WT mouse (C and I-M) or human acinar cells (D) with 100 nM CCK (CCK-AP) or 1 mM carbachol; and isolated pancreatic mitochondria (H). (B) Cholesterol ester (CE) heatmap; each column represents an individual mouse. (F) IB analysis of the indicated proteins. (G) LAL activity was measured by a fluorogenic assay (n=6 mice per condition). (H) Cholesterol content was measured by enzymatic assay. (I-M) Filipin colocalization with indicated proteins was quantified as detailed in FIGS. 2A-2L. Each symbol in A, C-E, and H represents an individual mouse, or cell or mitochondria preparation (n=3-15 per condition). Each symbol in J, K, and M corresponds to 20-30 cells in a different field (n=10-20 fields from 3 cell preparations per condition). Values are mean±SEM. *P<0.05, **P<0.01, ***P<0.001 vs. the same parameter in control/untreated pancreas, acinar cells or isolated mitochondria. Significance was determined by 2-tailed Student's t test (B, E, H, J, K, and M) or 1-way ANOVA followed by Tukey's multiple comparison test (A, C, and D). Scale bars: 10 μm.
Parameters of cholesterol metabolism were measured in (A, B, E, F) pancreas of mice subjected to pancreatitis induced with cerulean (CER-AP), L-arginine (Arg-AP), or combination of EtOH+palmitoleic acid (EtOH+POA); and (C) ex-vivo models on mouse and human acinar cells treated for 1 h with 100 nM CCK, […] or 500 μM TLCS. In (A), each column in CE heatmap represents an individual mouse. (B, C) Total cholesterol content was measured with cholesterol assay kit (Abcam, ab65390). […] Each symbol corresponds to 20-30 cells in each of 8 high-expression (qPCR) of proteins regulating cholesterol synthesis (4 mice/group). (B-D) Each symbol represents an individual animal or cell preparation. (A-D, F) Values are mean±SE (*p<0.05, **p<0.01, ***p<0.001 vs saline or control). Signficance was determined by 2-tailed student's t test.
(§5) Ex vivo pancreatitis models were performed on mouse and human acinar cells, and human pancreas slices by incubation with supramaximal CCK (100 nM) or carbachol (1 mM), as described previously (80, 81).
(§6) Total cholesterol content was measured with Cholesterol Assay kit per manufacturer's instructions. Samples of mouse pancreas and liver, cell pellet homogenates, subcellular fractions, isolated mitochondria, and serum were diluted in the reaction buffer containing cholesterol probe and incubated at 37° C. for 1 h in the dark. To measure total cholesterol, the samples were subjected to digestion with cholesterol esterase. To measure non-esterified cholesterol, the esterase was omitted from the assay.
Fluorescence intensity (for cholesterol) and absorbance (for TAG) were measured in a Tecan microplate reader. Each measurement was in duplicate, and the values were normalized per mg total protein in the sample.

Data set [6] concerns mouse pancreatic acinar cells. In words: Ex-vivo CCK-AP in mouse pancreatic acinar cells treated with simvastatin or MCD. The conditions noted are these: simvastatin 4 μM, 3 h or MCD 10 mM, 1 h. The class given is cell-based. On the procedure:
as §3, §5, §4, §6

For `CC(C)(CCCCCC(O)CCCCCC(C)(C)C(=O)O)C(=O)O` [BemA, Bempedoic acid], the myotoxicity result in the data set with muscles is on record as “minimal”. In addition, in data set [1], the “cholesterol overload in CER-AP (FIG. 25C)” value was “decreased”, the “inflammation in CER-AP (FIG. 25C)” value was “ameliorated”, the “necrosis in CER-AP (FIG. 25C)” value was “ameliorated” and the “trypsin activity in CER-AP (FIG. 25C)” value is reported as “ameliorated”. Further, in the data set with CER/CCK-AP, the “cholesterol overload, CER/CCK-AP” value was “prevented” and the “disease severity, CER/CCK-AP” value was “reduced”.

For `OC[C@H]1O[C@H](O[C@H]2O[C@H](CO)[C@@H](O)[C@H](O)[C@H]2O)[C@H](O)[C@@H](O)[C@@H]1O` [trehalose], the “pancreas injury in AP models” value with pancreas is recorded as “largely prevented”.

As for methyl-β-cyclodextrin [MCD], the “Trypsin activity, KO cells, MCD” value with trypsin [2] is “greatly decreased”. The CCK-induced trypsinogen activation entry in the data set on trypsin [3] was “reduced”. Further, the “usual cholesterol-reducing MCD concentration” value in the data set on mouse acinar cells [4] is on record as 1 to 5 mM. Further, the “Resistance of Gnptab−/− acinar cells to MCD” value with mouse acinar cells [5] was “highly resistant”. Moreover, the “MCD concentration at which cholesterol-reducing effect is evident” value in the data set with mouse acinar cells [5] (only at this concentration) is 50 mM. Moreover, in data set [6], the “cholesterol overload in ex-vivo CCK-AP” value is listed as “Reducing”, the “extent of necrosis in ex-vivo CCK-AP” value is listed as “greatly decreased” and the “trypsinogen activation in ex-vivo CCK-AP” value is on record as “greatly decreased”.
